# How the values were obtained:
# HEK293sieSTAT3(Y640F) [1] = assay: drug sensitivity score (DSS), viability CellTiter-Glo (DSS (dimensionless)); higher = more growth inhibition; extreme values may be limits of the assay; details: 72 h; STAT3 variant: Y640F (constitutively active)
# Summary of the method: (§1)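 For 72 hours at 37°C and 5% CO2, HEK293 cells overexpressing wild-type or mutant STAT3 and carrying a STAT3-dependent luciferase reporter were cultured on compounds at 5 concentrations in 10-fold dilutions. CellTox Green and then CellTiter-Glo signals were read, normalised to negative and positive control wells, and converted in Breeze into a drug sensitivity score based on dose-response curve area. Values are from one representative of two experiments.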
# HEK293sieSTAT3(wt) [2] = assay: as above; details: 72 h; STAT3 variant: wild type
# Summary of the method: as §1
# HEK293sieSTAT3(Y640F) [3] = assay: drug sensitivity score (DSS), cytotoxicity CellTox Green (DSS (dimensionless)); higher = more cytotoxic; extreme values may be limits of the assay; details: 72 h; STAT3 variant: Y640F (constitutively active)
# Summary of the method: as §1
# HEK293sieSTAT3(wt) [4] = assay: as above; details: 72 h; STAT3 variant: wild type
# Summary of the method: as §1
Structure (SMILES),drug sensitivity score (HEK293sieSTAT3(Y640F) [1]),drug sensitivity score (HEK293sieSTAT3(wt) [2]),drug sensitivity score (HEK293sieSTAT3(Y640F) [3]),drug sensitivity score (HEK293sieSTAT3(wt) [4])
CN(C)c1cc2c(cc1Sc1nc3c(N)nccc3n1CCNCC(C)(C)C)OCO2 [CUDC-305] (top concentration tested 10000 nM),20,24.6,7.26,17.6
COc1ccc(-c2nc(N3CCOCC3)c3sc(CN(C)c4ncc(C(=O)NO)cn4)cc3n2)cn1 [CUDC-907] (top concentration tested 10000 nM),36.8,37.1,19.1,30.6
Cc1nc(N)sc1-c1ccnc(Nc2ccc(N3CCOCC3)cc2)n1 [CYC-116] (top concentration tested 10000 nM),8.51,9.72,0,0.48
CO[C@H]1C(=O)[C@]2(C)[C@@H](OC)C[C@H]3OC[C@@]3(OC(C)=O)[C@H]2[C@H](OC(=O)c2ccccc2)[C@]2(O)C[C@H](OC(=O)[C@H](O)[C@@H](NC(=O)OC(C)(C)C)c3ccccc3)C(C)=C1C2(C)C [Cabazitaxel] (top concentration tested 1000 nM),26.2,28.6,4.14,16.3
COc1cc2nccc(Oc3ccc(NC(=O)C4(C(=O)Nc5ccc(F)cc5)CC4)cc3)c2cc1OC [Cabozantinib] (top concentration tested 1000 nM),0.13,1.9,0,0
CC[C@@]1(O)C(=O)OCc2c1cc1n(c2=O)Cc2cc3ccccc3nc2-1 [Camptothecin] (top concentration tested 5000 nM),28.5,29.1,9.78,15.8
C=CC(=O)Nc1cc2c(Nc3ccc(F)c(Cl)c3)ncnc2cc1OCCCN1CCOCC1 [Canertinib] (top concentration tested 10000 nM),6.3,8.37,6.41,7.96
CCCCCOC(=O)Nc1nc(=O)n([C@@H]2O[C@H](C)[C@@H](O)[C@H]2O)cc1F [Capecitabine] (top concentration tested 10000 nM),0,0,0,0
O=C(O)C1(C(=O)O)CCC1.[NH2-].[NH2-].[Pt+2] [Carboplatin] (top concentration tested 100000 nM),9.56,10.6,1.37,4.89
CC(C)C[C@H](NC(=O)[C@H](CCc1ccccc1)NC(=O)CN1CCOCC1)C(=O)N[C@@H](Cc1ccccc1)C(=O)N[C@@H](CC(C)C)C(=O)[C@@]1(C)CO1 [Carfilzomib] (top concentration tested 1000 nM),31.2,32.8,26.5,31.9
O=NN(CCCl)C(=O)NCCCl [Carmustine] (top concentration tested 10000 nM),3.24,1.45,0,0
COc1cc2c(Oc3ccc4[nH]c(C)cc4c3F)ncnc2cc1OCCCN1CCCC1 [Cediranib] (top concentration tested 1000 nM),1.03,1.46,0,0.26
Cc1ccc(-c2cc(C(F)(F)F)nn2-c2ccc(S(N)(=O)=O)cc2)cc1 [Celecoxib] (top concentration tested 10000 nM),0.58,4.14,0,0.02
CCS(=O)(=O)N1CCN(c2ccc(Nc3ncc(C(N)=O)c(NC4CC4)n3)cc2)CC1 [Cerdulatinib] (top concentration tested 10000 nM),6.32,9.09,0.63,7.28
Cc1cc(Nc2ncc(Cl)c(Nc3ccccc3S(=O)(=O)C(C)C)n2)c(OC(C)C)cc1C1CCNCC1 [Ceritinib] (top concentration tested 2500 nM),0.86,1.05,0,0.89
O=C(O)CCCc1ccc(N(CCCl)CCCl)cc1 [Chlorambucil] (top concentration tested 10000 nM),1.45,0.99,0,0
CCN(CC)CCCC(C)Nc1ccnc2cc(Cl)ccc12 (configuration not stated) [Chloroquine] (top concentration tested 100000 nM),11,13,8.17,15.8
CC(C)[C@H]1C(=O)N[C@@H](CCCNC(=N)N)C(=O)NCC(=O)N[C@@H](CC(=O)O)C(=O)N[C@H](Cc2ccccc2)C(=O)N1C [Cilengitide] (top concentration tested 10000 nM),0,0,0,0
N.N.[Cl][Pt][Cl] [Cisplatin] (top concentration tested 100000 nM),19.6,18.9,5.83,6.89
Nc1nc(Cl)nc2c1ncn2[C@H]1C[C@H](O)[C@@H](CO)O1 [Cladribine] (top concentration tested 1000 nM),1.45,6.32,0,0.33
Nc1nc(Cl)nc2c1ncn2[C@@H]1O[C@H](CO)[C@@H](O)[C@@H]1F [Clofarabine] (top concentration tested 10000 nM),18.6,20.3,3.51,7.13
CCN(CC)CCOc1ccc(C(=C(Cl)c2ccccc2)c2ccccc2)cc1 [Clomifene] (top concentration tested 10000 nM),5.14,7.15,6.99,7.9

Structure (SMILES),drug sensitivity score (HEK293sieSTAT3(Y640F) [1]),drug sensitivity score (HEK293sieSTAT3(wt) [2]),drug sensitivity score (HEK293sieSTAT3(Y640F) [3]),drug sensitivity score (HEK293sieSTAT3(wt) [4])
O=C(c1ccc(F)c(F)c1Nc1ccc(I)cc1F)N1CC(O)([C@@H]2CCCCN2)C1 [Cobimetinib] (top concentration tested 1000 nM),3.13,3.78,0,0
COc1c(OCCCN2CCOCC2)ccc2c1N=C(NC(=O)c1cnc(N)nc1)N1CCN=C21 [Copanlisib] (top concentration tested 1000 nM),15.5,18.3,0,0.34
CC1(COc2ccc3c(c2)ncn3-c2ccc3cccc(N4CCC(N)CC4)c3n2)COC1 [Crenolanib] (top concentration tested 10000 nM),9.27,11.9,8.74,11
C[C@@H](Oc1cc(-c2cnn(C3CCNCC3)c2)cnc1N)c1c(Cl)ccc(F)c1Cl [Crizotinib] (top concentration tested 1000 nM),1.05,1.97,0.46,5.34
O=P1(N(CCCl)CCCl)NCCCO1 (configuration not stated) [Cyclophosphamide] (top concentration tested 40000 nM),0,0,0,0
Nc1ccn([C@@H]2O[C@H](CO)[C@@H](O)[C@@H]2O)c(=O)n1 [Cytarabine] (top concentration tested 10000 nM),8.82,13.3,0.18,1.75
CC(C)(C)c1nc(-c2cccc(NS(=O)(=O)c3c(F)cccc3F)c2F)c(-c2ccnc(N)n2)s1 [Dabrafenib] (top concentration tested 2500 nM),0,0,0,0
CN(C)/N=N/c1[nH]cnc1C(N)=O [Dacarbazine] (top concentration tested 10000 nM),0.02,2.09,0,0
COc1cc2ncnc(Nc3ccc(F)c(Cl)c3)c2cc1NC(=O)/C=C/CN1CCCCC1 [Dacomitinib] (top concentration tested 1000 nM),1.76,5.47,0,0
Cc1c2oc3c(C)ccc(C(=O)N[C@@H]4C(=O)N[C@H](C(C)C)C(=O)N5CCC[C@H]5C(=O)N(C)CC(=O)N(C)[C@@H](C(C)C)C(=O)O[C@@H]4C)c3nc-2c(C(=O)N[C@@H]2C(=O)N[C@H](C(C)C)C(=O)N3CCC[C@H]3C(=O)N(C)CC(=O)N(C)[C@@H](C(C)C)C(=O)O[C@@H]2C)c(N)c1=O [Dactinomycin] (top concentration tested 1000 nM),32.5,35.4,0,0
Cn1c(=O)n(-c2ccc(C(C)(C)C#N)cc2)c2c3cc(-c4cnc5ccccc5c4)ccc3ncc21 [Dactolisib] (top concentration tested 1000 nM),19.3,23,0,2.88
CO[C@@H](C(=O)N1Cc2[nH]nc(NC(=O)c3ccc(N4CCN(C)CC4)cc3)c2C1)c1ccccc1 [Danusertib] (top concentration tested 10000 nM),6.46,7.14,0,11.8
O=C(/C=C/c1cccnc1)NCCCCC1CCN(C(=O)c2ccccc2)CC1 [Daporinad] (top concentration tested 1000 nM),32.8,32.8,3.19,0
CCN(CC)CCN(Cc1ccc(-c2ccc(C(F)(F)F)cc2)cc1)C(=O)Cn1c(SCc2ccc(F)cc2)nc(=O)c2c1CCC2 [Darapladib] (top concentration tested 1000 nM),1.89,1.03,1.32,0.65
Cc1nc(Nc2ncc(C(=O)Nc3c(C)cccc3Cl)s2)cc(N2CCN(CCO)CC2)n1 [Dasatinib] (top concentration tested 1000 nM),6.45,2.74,0,1.81
COc1cccc2c1C(=O)c1c(O)c3c(c(O)c1C2=O)C[C@@](O)(C(C)=O)C[C@@H]3O[C@H]1C[C@H](N)[C@H](O)[C@H](C)O1 [Daunorubicin] (top concentration tested 1000 nM),21.9,24,0,0
Nc1ncn([C@H]2C[C@H](O)[C@@H](CO)O2)c(=O)n1 [Decitabine] (top concentration tested 10000 nM),7.35,10.4,0.02,3.31
CC(=O)N(O)CCCCCNC(=O)CCC(=O)N(O)CCCCCNC(=O)CCC(=O)N(O)CCCCCN [Deferoxamine] (top concentration tested 10000 nM),2.48,3.23,0.01,1.09
C[C@@H]1C[C@H]2[C@@H]3CCC4=CC(=O)C=C[C@]4(C)[C@@]3(F)[C@@H](O)C[C@]2(C)[C@@]1(O)C(=O)CO [Dexamethasone] (top concentration tested 10000 nM),3,2.01,0,0
CCc1cnn2c(NCc3ccc[n+]([O-])c3)cc(N3CCCC[C@H]3CCO)nc12 [Dinaciclib] (top concentration tested 1000 nM),27.9,28.8,7.03,24.6
CCN(CC)C(=S)SSC(=S)N(CC)CC [Disulfiram] (top concentration tested 100000 nM),31.1,30.2,30.9,30.4

# From the supplement of paper PMC7108870
